Measured values: ChEMBL document CHEMBL4706669, “Majonoside-R2 extracted from Vietnamese ginseng protects H9C2 cells against hypoxia/reoxygenation injury via modulating mitochondrial function and biogenesis” (2021)
Active and inactive are the calls of the source. No cut-off for these calls is given here.

Assays:
H9c2 [1] = assay: Protection against HR-induced mitochondrial dysfunction in rat H9c2 cells assessed as increase in cardiolipin content by fluorescence microplate reader; format: functional, cell-based
H9c2 [2] = assay: Cardioprotective activity against HR-induced injury in rat H9c2 cells assessed as increase in cell viability at 10 uM by CCK-8 assay relative to control; format: functional
H9c2 [3] = assay: Protection against HR-induced mitochondrial dysfunction in rat H9c2 cells assessed as mitochondrial membrane potential by measuring TMRE intensity by fluorescence microplate reader (reference value: 98.59 +/- 0.96 %); format: functional, cell-based; settings: dose 9.0 µM
H9c2 [4] = assay: Protection against HR-induced mitochondrial dysfunction in rat H9c2 cells assessed as decrease in ROS production by fluorescence microplate reader; format: functional, cell-based
H9c2 [5] = assay: Induction of mitochondrial biogenesis in rat H9c2 cells with HR-induced injury assessed as effect on PGC1alpha mRNA expression; format: functional, cell-based
H9c2 [6] = assay: Increase in mitochondrial mass in rat H9c2 cells with HR-induced injury assessed as increase in NAO intensity by fluorescence microscopic analysis; format: functional, cell-based
H9c2 [7] = assay: Induction of mitochondrial biogenesis in rat H9c2 cells with HR-induced injury assessed as increase in NRF-1 mRNA expression; format: functional, cell-based
H9c2 [8] = assay: Cardioprotective activity against HR-induced injury in rat H9c2 cells assessed as increase in cell viability at 9 uM by CCK-8 assay relative to control; format: functional
H9c2 [9] = assay: Cardioprotective activity against HR-induced injury in rat H9c2 cells assessed as increase in cell viability at 0.1 to 90 uM by CCK-8 assay; format: functional, cell-based; settings: dose 0.1-90 µM
H9c2 [10] = assay: Induction of mitochondrial biogenesis in rat H9c2 cells with HR-induced injury assessed as increase in NAO intensity by fluorescence microscopic analysis; format: functional, cell-based
H9c2 [11] = assay: Induction of mitochondrial biogenesis in rat H9c2 cells with HR-induced injury assessed as upregulation of TFAM expression; format: functional, cell-based
[12] = Induction of mitochondrial biogenesis in rat H9c2 cells with HR-induced injury assessed as upregulation of PPAR expression by immunoblotting (reference value: 0.065 +/- 0.019); format: functional
H9c2 [13] = assay: Induction of mitochondrial biogenesis in rat H9c2 cells with HR-induced injury assessed as […] in NRF-2 mRNA expression; format: functional, cell-based
[14] = Induction of mitochondrial biogenesis in rat H9c2 cells with HR-induced injury assessed as upregulation of PGC1beta mRNA expression relative to GADPH (reference value: 0.981 +/- 0.007); format: functional
[15] = Induction of mitochondrial biogenesis in rat H9c2 cells with HR-induced injury assessed as upregulation of ATP5I expression (reference value: 0.998 +/- 0.001); format: functional

| SMILES | Activity (H9c2 [1]) | Activity (H9c2 [2]) [%] | Activity (H9c2 [3]) | Activity (H9c2 [4]) | Activity (H9c2 [5]) | Activity (H9c2 [6]) | Activity (H9c2 [7]) | Activity (H9c2 [8]) [%] | Activity (H9c2 [9]) | Activity (H9c2 [10]) | Activity (H9c2 [11]) | fold change (FC) [12] | Activity (H9c2 [13]) | fold change (FC) [14] | fold change (FC) [15] |
| --- | --- | --- | --- | --- | --- | --- | --- | --- | --- | --- | --- | --- | --- | --- | --- |
| CS(=O)(=O)O.CS(=O)(=O)O.O=S1(=O)CCN(Cc2cc(NCC3CCOCC3)c3[nH]c(-c4ccccc4)cc3c2)CC1 | Active | 84.37 | Active | Active |  |  |  |  |  |  |  |  |  |  |  |
| CC(C)(O)[C@@H]1CC[C@@](C)([C@H]2CC[C@]3(C)[C@@H]2[C@H](O)C[C@@H]2[C@@]4(C)CC[C@H](O)C(C)(C)[C@@H]4[C@@H](O[C@@H]4O[C@H](CO)[C@@H](O)[C@H](O)[C@H]4O[C@@H]4OC[C@@H](O)[C@H](O)[C@H]4O)C[C@]23C)O1 [MAJONOSIDE R2] | Active |  | Active | Active | inactive | Active | Active | 78.09 | Active | Active | Active | 0.867 | Active | 1.113 | 1.135 |
